Experimental data reported in patent US20240158348A1, “HERBICIDAL CYCLIC AMIDES N-SUBSTITUTED WITH A HALOALKYLSULFONYLANILIDE GROUP” (FMC Corporation, priority 2021, published 2024).

Legend:
Type in all cases: in vivo
[1] = tested on: blackgrass (Alopecurus myosuroides); experiment: Test C preemergence, blackgrass; conditions: 0 is no effect, 100 is complete control
From the text: Seeds of plant species selected from blackgrass (Alopecurus myosuroides), corn (Zea mays), foxtail, giant (giant foxtail, Setaria faberi), goosegrass (Eleusine indica), kochia (Bassia scoparia), oat, wild (wild oat, Avena fatua), pigweed, palmer (palmer amaranth, Amaranthus palmeri), ragweed (common ragweed, Ambrosia artemisiifolia), ryegrass, Italian (Italian ryegrass, Lolium multiflorum), soybean (Glycine max) and wheat (Triticum aestivum) were planted into a blend of loam soil and sand and treated preemergence with a directed soil spray using test chemicals formulated in a non-phytotoxic solvent mixture which included a surfactant.
At the same time, plants selected from these crop and weed species and also galium (catchweed bedstraw, Galium aparine) and horseweed (Erigeron canadensis) were planted in pots containing the same blend of loam soil and sand and treated with postemergence applications of test chemicals formulated in the same manner. Plants ranged in height from 2 to 10 cm and were in the one- to two-leaf stage for the postemergence treatment. Treated plants and untreated controls were maintained in a greenhouse for 10 or 12 days, after which time all treated plants were compared to untreated controls and visually evaluated for injury. Plant response ratings, summarized in Table A, are based on a 0 to 100 scale where 0 is no effect and 100 is complete control. A dash (-) response means no test result.

corn (Zea mays) [2] = experiment: Test C preemergence, corn; conditions: 0 is no effect, 100 is complete control
Method in brief: (§1)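 Injury is given as a visual 0–100 rating, where 100 is complete control, made against untreated plants after 10 or 12 greenhouse days. Galium received a postemergence spray at the one- to two-leaf stage (2–10 cm tall). Corn, ragweed and goosegrass seeds in loam-sand blend received a directed preemergence soil spray; test chemicals were formulated in a surfactant-containing non-phytotoxic solvent.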

[3] = tested on: foxtail, giant (giant foxtail, Setaria faberi); experiment: Test C preemergence, giant foxtail; conditions: 0 is no effect, 100 is complete control
Method in brief: (§2)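 Ratings run from 0, meaning no effect, up to 100, meaning complete control, judged by eye against untreated plants. Treatment was a directed soil spray before emergence or a postemergence spray on 2–10 cm seedlings, with evaluation 10 or 12 days later.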

[4] = tested on: goosegrass (Eleusine indica); experiment: Test C preemergence, goosegrass; conditions: 0 is no effect, 100 is complete control
Method in brief: as §1

kochia (Bassia scoparia) [5] = experiment: Test C preemergence, kochia; conditions: 0 is no effect, 100 is complete control
Method in brief: as §2

[6] = tested on: oat, wild (wild oat, Avena fatua); experiment: Test C preemergence, wild oat; conditions: 0 is no effect, 100 is complete control
Method in brief: as §2

[7] = tested on: pigweed, palmer (palmer amaranth, Amaranthus palmeri); experiment: Test C preemergence, palmer amaranth; conditions: 0 is no effect, 100 is complete control
Method in brief: as §2

[8] = tested on: ragweed (common ragweed, Ambrosia artemisiifolia); experiment: Test C preemergence, ragweed; conditions: 0 is no effect, 100 is complete control
Method in brief: as §1

[9] = tested on: ryegrass, Italian (Italian ryegrass, Lolium multiflorum); experiment: Test C preemergence, Italian ryegrass; conditions: 0 is no effect, 100 is complete control
Method in brief: as §2

soybean (Glycine max) [10] = experiment: Test C preemergence, soybean; conditions: 0 is no effect, 100 is complete control
Method in brief: as §2

[11] = tested on: wheat (Triticum aestivum); experiment: Test C preemergence, wheat; conditions: 0 is no effect, 100 is complete control
[12] = tested on: blackgrass (Alopecurus myosuroides); experiment: Test C postemergence, blackgrass; conditions: 31 g ai/ha Postemergence; visual injury, 0 to 100 scale (0 no effect, 100 complete control)
Method in brief: as §2

corn (Zea mays) [13] = experiment: Test C postemergence, corn
[14] = tested on: foxtail, giant (giant foxtail, Setaria faberi); experiment: Test C postemergence, giant foxtail
[15] = tested on: goosegrass (Eleusine indica); experiment: Test C postemergence, goosegrass
Method in brief: as §2

kochia (Bassia scoparia) [16] = experiment: Test C postemergence, kochia
Method in brief: as §2

[17] = tested on: oat, wild (wild oat, Avena fatua); experiment: Test C postemergence, wild oat
[18] = tested on: pigweed, palmer (palmer amaranth, Amaranthus palmeri); experiment: Test C postemergence, palmer amaranth; conditions: visual injury, 0 to 100 scale (0 no effect, 100 complete control)
Method in brief: as §2

[19] = tested on: ragweed (common ragweed, Ambrosia artemisiifolia); experiment: Test C postemergence, ragweed; conditions: visual injury, 0 to 100 scale (0 no effect, 100 complete control)
Method in brief: as §2

[20] = tested on: ryegrass, Italian (Italian ryegrass, Lolium multiflorum); experiment: Test C postemergence, Italian ryegrass; conditions: visual injury, 0 to 100 scale (0 no effect, 100 complete control)
Method in brief: as §2

soybean (Glycine max) [21] = experiment: Test C postemergence, soybean; conditions: visual injury, 0 to 100 scale (0 no effect, 100 complete control)
[22] = tested on: wheat (Triticum aestivum); experiment: Test C postemergence, wheat; conditions: visual injury, 0 to 100 scale (0 no effect, 100 complete control)
Method in brief: as §2

[23] = tested on: galium (catchweed bedstraw, Galium aparine); experiment: Test C postemergence, galium
[24] = tested on: barnyardgrass (Echinochloa crusgalli); experiment: Test D flooded paddy test, barnyardgrass; design: key: 0 = no effect, 100 = complete control; conditions: 250 g ai/ha, Flood; applied to paddy water at 2-leaf stage; visual rating after 13 days; scale 0 (no effect) to 100 (complete control)
Method in brief: (§3)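 Visual response scores run 0 (no effect) to 100 (complete control), judged against controls 13 days after treatment. Compounds were added to paddy water 3 cm deep over soil, around plants at the 2-leaf stage kept in a greenhouse.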

[25] = tested on: ducksalad (Heteranthera limosa); experiment: Test D flooded paddy test, ducksalad; design: key: 0 = no effect, 100 = complete control; conditions: 250 g ai/ha, Flood; applied to paddy water at 2-leaf stage; visual rating after 13 days; scale 0 (no effect) to 100 (complete control)
Method in brief: as §3

rice (Oryza sativa) = experiment: Test D flooded paddy test, rice; design: key: 0 = no effect, 100 = complete control; conditions: 250 g ai/ha, Flood; applied to paddy water at 2-leaf stage; visual rating after 13 days; scale 0 (no effect) to 100 (complete control)
Method in brief: as §3

[26] = tested on: sedge, umbrella (small-flower umbrella sedge, Cyperus difformis); experiment: Test D flooded paddy test, umbrella sedge; design: key: 0 = no effect, 100 = complete control; conditions: 250 g ai/ha, Flood; applied to paddy water at 2-leaf stage; visual rating after 13 days; scale 0 (no effect) to 100 (complete control)
Method in brief: as §3

[27] = tested on: blackgrass (Alopecurus myosuroides); experiment: Test C postemergence, blackgrass; conditions: 125 g ai/ha Postemergence; 0 is no effect, 100 is complete control
[28] = 31 g ai/ha Postemergence, visual injury, 0 to 100 scale (0 no effect, 100 complete control)
[29] = 125 g ai/ha Postemergence, 0 is no effect, 100 is complete control

SMILES: Cc1cc(C)c(N2CCC(OC3CC3)C2=O)cc1NS(=O)(=O)C(F)(F)F (single isomer, unassigned) [Compound 29]
- Plant response rating (0 to 100 scale), Blackgrass ([1]; 31 g ai/ha Preemergence): 90
- Plant response rating (0 to 100 scale), Blackgrass ([1]; 125 g ai/ha Preemergence): 90
- Plant response rating (0 to 100 scale), Corn (corn (Zea mays) [2]; 31 g ai/ha Preemergence): 80
- Plant response rating (0 to 100 scale), Corn (corn (Zea mays) [2]; 125 g ai/ha Preemergence): 90
- Plant response rating (0 to 100 scale), Foxtail, Giant ([3]; 31 g ai/ha Preemergence): 90
- Plant response rating (0 to 100 scale), Foxtail, Giant ([3]; 125 g ai/ha Preemergence): 100
- Plant response rating (0 to 100 scale), Goosegrass ([4]; 31 g ai/ha Preemergence): 100
- Plant response rating (0 to 100 scale), Goosegrass ([4]; 125 g ai/ha Preemergence): 100
- Plant response rating (0 to 100 scale), Kochia (kochia (Bassia scoparia) [5]; 31 g ai/ha Preemergence): 90
- Plant response rating (0 to 100 scale), Kochia (kochia (Bassia scoparia) [5]; 125 g ai/ha Preemergence): 100
- Plant response rating (0 to 100 scale), Oat, Wild ([6]; 31 g ai/ha Preemergence): 90
- Plant response rating (0 to 100 scale), Oat, Wild ([6]; 125 g ai/ha Preemergence): 90
- Plant response rating (0 to 100 scale), Pigweed, Palmer ([7]; 31 g ai/ha Preemergence): 100
- Plant response rating (0 to 100 scale), Pigweed, Palmer ([7]; 125 g ai/ha Preemergence): 100
- Plant response rating (0 to 100 scale), Ragweed ([8]; 31 g ai/ha Preemergence): 80
- Plant response rating (0 to 100 scale), Ragweed ([8]; 125 g ai/ha Preemergence): 90
- Plant response rating (0 to 100 scale), Ryegrass, Italian ([9]; 31 g ai/ha Preemergence): 100
- Plant response rating (0 to 100 scale), Ryegrass, Italian ([9]; 125 g ai/ha Preemergence): 100
- Plant response rating (0 to 100 scale), Soybean (soybean (Glycine max) [10]; 31 g ai/ha Preemergence): 90
- Plant response rating (0 to 100 scale), Soybean (soybean (Glycine max) [10]; 125 g ai/ha Preemergence): 100
- Plant response rating (0 to 100 scale), Wheat ([11]; 31 g ai/ha Preemergence): 90
- Plant response rating (0 to 100 scale), Wheat ([11]; 125 g ai/ha Preemergence): 100
- Blackgrass plant response rating [12]: 60
- Corn plant response rating (corn (Zea mays) [13]; [28]): 80
- Plant response rating (0 to 100 scale), Corn (corn (Zea mays) [13]; [29]): 90
- Foxtail, Giant plant response rating [14, 28]: 90
- Plant response rating (0 to 100 scale), Foxtail, Giant [14, 29]: 90
- Goosegrass plant response rating [15, 28]: 90
- Plant response rating (0 to 100 scale), Goosegrass [15, 29]: 90
- Kochia plant response rating (kochia (Bassia scoparia) [16]; [28]): 60
- Plant response rating (0 to 100 scale), Kochia (kochia (Bassia scoparia) [16]; [29]): 90
- Oat, Wild plant response rating [17, 28]: 20
- Plant response rating (0 to 100 scale), Oat, Wild [17, 29]: 80
- Pigweed, Palmer plant response rating ([18]; 31 g ai/ha Postemergence): 60
- Pigweed, Palmer plant response rating ([18]; 125 g ai/ha Postemergence): 90
- Ragweed plant response rating ([19]; 31 g ai/ha Postemergence): 60
- Ragweed plant response rating ([19]; 125 g ai/ha Postemergence): 80
- Ryegrass, Italian plant response rating ([20]; 31 g ai/ha Postemergence): 70
- Ryegrass, Italian plant response rating ([20]; 125 g ai/ha Postemergence): 100
- Soybean plant response rating (soybean (Glycine max) [21]; 31 g ai/ha Postemergence): 60
- Soybean plant response rating (soybean (Glycine max) [21]; 125 g ai/ha Postemergence): 100
- Wheat plant response rating ([22]; 31 g ai/ha Postemergence): 70
- Wheat plant response rating ([22]; 125 g ai/ha Postemergence): 70
- Galium plant response rating [23, 28]: 80
- Plant response rating (0 to 100 scale), Galium [23, 29]: 100
- Plant response rating, Barnyardgrass [24]: 95
- Plant response rating, Ducksalad [25]: 45
- Plant response rating, Rice (rice (Oryza sativa)): 85
- Plant response rating, Sedge, Umbrella [26]: 95
- Plant response rating (0 to 100 scale), Blackgrass [27]: 70
